Laboratory results taken from paper PMC8625559 (Pharmaceutics, 2021).
Values belong to the compound of their own block, whether it stands above or below them.

Experiments:
[1] = Stability in buffer solutions (LC/MS-MS method validation); format: physicochemical; conditions: spiked at 426 and 21.5 ng/mL
Method: The specificity of the analytical method was controlled with blank (NaCl, 9 g/L) solution (Merck, Darmstadt Germany). The limit of quantitation (LoQ) was 2.43 ng/mL. Linearity was determined between the LoQ and 1000 ng/mL, with accuracy below ±15%, except at the LoQ, which was below ± 20%. Accuracy and precision were determined at least at two quality control (QC) theoretical concentrations: low (around 20 ng/mL) and middle (around 300 ng/mL). All QCs remained within the acceptance criteria (accuracy < ±15%). Matrix effects and stability in buffer solutions and buffer supplemented with pig skin were evaluated at two concentrations (426 and 21.5 ng/mL) in triplicate by spiking buffer solutions containing known amounts of chemical. […] A matrix effect was observed; therefore, all calibrations for this chemical were carried out in the matrix.

[2] = Skin-PAMPA permeability of PER in different solvents; format: in vitro ADME
Method: Skin PAMPA™ sandwiches and stirring bars (P/N: 110211) were supplied by Pion Inc™. UV plates (UV-star microplate, clear, flat bottom, half area) were from Greiner Bio-one™ (Kremsmünster, Austria). Membranes were hydrated overnight with standard hydration solution (Pion Inc™., product number 120706). […] The acceptor (lower) plate contained 180 μL Prisma buffer pH 7.4 and a magnetic stirrer in each well. The PAMPA™ sandwich was incubated at 32 °C in a Gut-Box™ (from Pion Inc™). Stirring bars were applied in every well to avoid the effect of the unstirred water layer. The acceptor solution was sampled after 7.5, 15, 30, 60, 120, 240 and 360 min incubation. After each individual incubation period, 150 µL from the acceptor compartment was transferred to UV plates. The acceptor phase was replaced with fresh buffer solution.
The flux (J) was obtained as the slope of the permeability profile and expressed in µg/cm^2 × h units. For the linear regression analysis, the linear range of incubation period from 0 to 30 min was selected and used for calculation of flux of the model compound. Permeability coefficient Pm […] was calculated from the equation:Pm= J/CD(2) where CD is the donor phase concentration.

[3] = Penetration kinetics across pig ear skin; format: in vitro ADME
Method: Before use, hairs were shaved from the pig ear skin using an electric razor, and the skin thickness was adjusted between 700 and 1200 µm. This size range was achieved by cutting the dermis below hair follicle. The integrity of the skin was tested according to the Trans-Epidermal Water Loss (TEWL) method using a Delfin device.
After topical application of the test chemical (infinite dose, 1.13 mL/cm^2), the concentration of the chemical in the receptor fluid was measured by sampling 200 µL of receptor fluid and replacing it with fresh fluid on an hourly basis, up to 16 h.
The kinetic samples were directly injected into an LC/MS-MS system (Shimadzu Nexera LC system, Shimadzu, Kyoto, Japan) coupled with a mass spectrometer API 3500 (Sciex, Framingham, MA, USA). The analytical system was managed by Analyst v.1.6 software (Sciex, Framingham, MA, USA). The analytical column used was a Kinetex C18 from Phenomenex™ (Torrance, CA, USA) (50 × 2.0 mm, dp. 2.6 µm), and analysis was carried out with a gradient elution with mobile phases of 20 mM ammonium acetate (A) and acetonitrile (B). The column temperature was fixed at 50 °C, and the volume of the injection was 10 µL with a flow rate of 0.8 mL/min. The ionisation mode used was electrospray negative.
The calculation was carried out using GraphPad PrismT v.7 (GraphPad Software Inc., San Diego, CA, USA).

[4] = logP by shake-flask method, octanol/water; format: physicochemical; conditions: 25.0 °C
Method: Two parallel experiments were carried out. Four different phase ratios of octanol:water (1:50, 1:75, 1:100, 1:125) were applied. The equilibration time was 1 h (Lauda M2OS, shaking thermostat Königshofen, Germany), and the phases were separated by centrifugation. The concentration decrease in the sample in the aqueous phase was detected by UV spectroscopy (Jasco V-550 UV/VIS spectrophotometer, Easton, MD, USA) measuring the absorbance before and after the partition at λmax = 280 nm. The logP value was calculated from the equation:(1) logP=log[A0−A1/A1(Vaq/Voct)] where A0 and A1 represent the absorbance value at the absorption maximum of the compound in the aqueous phase before and after partition.

[5] = parameters: method as in L'Oréal Laboratories; conditions: AH/A−; ref L'Oréal Laboratories; cited from earlier work
[6] = parameters: method as in PMID 25957747; conditions: aqueous solution, untreated Skin-PAMPA plates; cited from earlier work
[7] = Skin-PAMPA membrane integrity study with piroxicam as model permeant; format: in vitro ADME; conditions: piroxicam from aqueous solution; membranes pre-treated 7 h with each of 13 solvents
Method: Possible disruption by solvents of the integrity of the biomimetic artificial membrane was investigated. Wells were filled with each solvent and incubated over a longer (minimum 7 h) incubation time than the duration of the tests with the model solutions. The solvents were aspirated from the wells, and the residue from the surface of the membrane was removed gently with cotton paper. A standard skin permeability assay was then performed using piroxicam as the model permeant, for which precise previous data are available. The logPm values were compared with the reference value from untreated plates.

[8] = PER in S2 Ethanol, CD 500 mg/mL
[9] = PER in S4 Dimethylisosorbide, CD 70 mg/mL
[10] = PER in S5 Water/ethanol 80:20 (w/w), CD 10 mg/mL
[11] = PER in S6 Water/dimethylisosorbide 90:10 (w/w), CD 1 mg/mL
[12] = PER in S7 Propylene glycol, CD 500 mg/mL
[13] = PER in S8 Water:propylene glycol 80:20 (w/w), CD 10 mg/mL
[14] = PER in S9 Water/propylenglycol/ethanol 10:30:60 (w/w/w), CD 500 mg/mL
[15] = PER in S10 Capric/caprylic triglycerides, CD 70 mg/mL
[16] = PER in S11 Octyl dodecanol, CD 1 mg/mL
[17] = PER in S12 Apricot kernel oil, CD 1 mg/mL
[18] = PER in S13 Corn oil, CD 1 mg/mL
[19] = PER in S4 Dimethylisosorbide, CD 60 mg/mL
[20] = PER in S5 Water/ethanol 80:20 (w/w), CD 8 mg/mL
[21] = PER in S7 Propylene glycol, CD 350 mg/mL
[22] = PER in S8 Water:propylene glycol 80:20 (w/w), CD 51 mg/mL
[23] = PER in S10 Capric/caprylic triglycerides, CD 75 mg/mL

stability in buffer solutions spiked with PER [1]: 98.3 ± 7.0%
J (flux) ([2]; PER in S1 Water, CD 1 mg/mL): 72.4 ± 7.8 µg/cm^2 × h
Lag Time ([2]; PER in S1 Water, CD 1 mg/mL): 1.4 min
Permeated Amount (6 h) ([2]; PER in S1 Water, CD 1 mg/mL): 169 ± 4 µg/cm^2
logPm ([2]; PER in S1 Water, CD 1 mg/mL): −1.12 ± 0.06
J (flux) [2, 8]: 12,033 ± 252 µg/cm^2 × h
Lag Time [2, 8]: 0.0 min
Permeated Amount (6 h) [2, 8]: 13,575 ± 1710 µg/cm^2
logPm [2, 8]: −1.62 ± 0.01
J (flux) ([2]; PER in S3 Glycerol, CD 5 mg/mL): 137 ± 22 µg/cm^2 × h
Lag Time ([2]; PER in S3 Glycerol, CD 5 mg/mL): 5.5 min
Permeated Amount (6 h) ([2]; PER in S3 Glycerol, CD 5 mg/mL): 869 ± 112 µg/cm^2
logPm ([2]; PER in S3 Glycerol, CD 5 mg/mL): −1.57 ± 0.07
J (flux) [2, 9]: 209 ± 53 µg/cm^2 × h
Lag Time [2, 9]: 3.6 min
Permeated Amount (6 h) [2, 9]: 1342 ± 298 µg/cm^2
logPm [2, 9]: −2.54 ± 0.13
J (flux) [2, 10]: 589 ± 25 µg/cm^2 × h
Lag Time [2, 10]: 0.9 min
Permeated Amount (6 h) [2, 10]: 1662 ± 169 µg/cm^2
logPm [2, 10]: −1.23 ± 0.03
J (flux) [2, 11]: 76.4 ± 15.2 µg/cm^2 × h
Lag Time [2, 11]: 0.0 min
Permeated Amount (6 h) [2, 11]: 175 ± 22 µg/cm^2
logPm [2, 11]: −1.13 ± 0.07
J (flux) [2, 12]: 2118 ± 502 µg/cm^2 × h
Lag Time [2, 12]: 3.8 min
Permeated Amount (6 h) [2, 12]: 11,142 ± 729 µg/cm^2
logPm [2, 12]: −2.38 ± 0.11
J (flux) [2, 13]: 570 ± 5 µg/cm^2 × h
Lag Time [2, 13]: 1.1 min
Permeated Amount (6 h) [2, 13]: 1772 ± 98 µg/cm^2
logPm [2, 13]: −1.24 ± 0.01
J (flux) [2, 14]: 10,846 ± 326 µg/cm^2 × h
Lag Time [2, 14]: 1.4 min
Permeated Amount (6 h) [2, 14]: 14,926 ± 2431 µg/cm^2
logPm [2, 14]: −1.66 ± 0.01
J (flux) [2, 15]: 377 ± 36 µg/cm^2 × h
Lag Time [2, 15]: 3.0 min
Permeated Amount (6 h) [2, 15]: 749 ± 92 µg/cm^2
J (flux) [2, 16]: 7.18 ± 1.6 µg/cm^2 × h
Lag Time [2, 16]: 3.9 min
Permeated Amount (6 h) [2, 16]: 19 ± 0.4 µg/cm^2
J (flux) [2, 17]: 2.45 ± 0.57 µg/cm^2 × h
Lag Time [2, 17]: 3.3 min
Permeated Amount (6 h) [2, 17]: 13 ± 1.9 µg/cm^2
logPm [2, 17]: −2.63 ± 0.07
J (flux) [2, 18]: 3.26 ± 0.41 µg/cm^2 × h
Lag Time [2, 18]: 1.4 min
Permeated Amount (6 h) [2, 18]: 13 ± 1.3 µg/cm^2
logPm [2, 18]: −2.48 ± 0.06
calculated lag times ([2]; span over all 13 solvents): 0 to 6 min
J (flux) ([3]; PER in S1 Water, CD 1 mg/mL): 25 ± 9.6 µg/cm^2 × h
Permeated Amount (16 h) ([3]; PER in S1 Water, CD 1 mg/mL): 261 ± 100 µg/cm^2
logKp ([3]; PER in S1 Water, CD 1 mg/mL): −1.71 ± 0.32
Permeated Amount (16 h) ([3]; PER in S2 Ethanol, CD […]): 98 ± 67 µg/cm^2
J (flux) [3, 19]: 0.08 ± 0.024 µg/cm^2 × h
logKp [3, 19]: −5.88 ± 0.19
J (flux) [3, 20]: 61 ± 18 µg/cm^2 × h
Permeated Amount (16 h) [3, 20]: 515 ± 203 µg/cm^2
logKp [3, 20]: −1.97 ± 0.34
J (flux) [3, 11]: 7.5 ± 3 µg/cm^2 × h
Permeated Amount (16 h) [3, 11]: 100 ± 37 µg/cm^2
logKp [3, 11]: −2.16 ± 0.26
J (flux) [3, 21]: 20 ± 17.6 µg/cm^2 × h
Permeated Amount (16 h) [3, 21]: 147 ± 120 µg/cm^2
logKp [3, 21]: −4.24 ± 0.81
J (flux) [3, 22]: 98 ± 50 µg/cm^2 × h
Permeated Amount (16 h) [3, 22]: 516 ± 109 µg/cm^2
logKp [3, 22]: −1.72 ± 0.34
Permeated Amount (16 h) ([3]; PER in S9 Water/propylenglycol/ethanol 10:30:60 (w/w/w), CD […]): 320 ± 149 µg/cm^2
J (flux) [3, 23]: 8 ± 3.5 µg/cm^2 × h
Permeated Amount (16 h) [3, 23]: 54 ± 34 µg/cm^2
logKp [3, 23]: −3.97 ± 0.29
logP [4]: 2.98 ^1
Compound: 4-phenylethyl-resorcinol [PER]
pKa [5]: 9.77–10.77 (AH/A^−) ^2

logPm of piroxicam, mean across solvent-treated membranes [7]: −4.25 ± 0.30
Compound: CN1C(C(=O)Nc2ccccn2)=C(O)c2ccccc2S1(=O)=O [piroxicam]
reference logPm of piroxicam [6]: −4.98 ± 0.01
